Measured values: patent publication US10131657B2, “Bromodomain inhibitors” (AbbVie Inc., priority 2013, dated 2018)

These molecules were tested against T1, BRD4 (BDI_K57-E168) (Homo sapiens, UniProt O60885) (assay: TR-FRET bromodomain binding assay, BRD4 first bromodomain). Details: His-tagged BRD4 BD1, 100 nM Alexa647 probe; Ki calculated from IC50, probe Kd and probe concentration.
T1 construct: BD1: amino acids K57-E168; made in house
Protocol: (§1) A time-resolved fluorescence resonance energy transfer (TR-FRET) assay was used to determine the affinities of compounds of the Examples listed in Table 1 for each bromodomain of BRD4. His-tagged first (BD1: amino acids K57-E168) and second (BD2: amino acids E352-E168) bromodomains of BRD4 were expressed and purified. An Alexa647-labeled BET-inhibitor was used as the fluorescent probe in the assay.
(§2) Compound dilution series were prepared in DMSO via a 3-fold serial dilution from 2.5 mM to 42 nM. Compounds were then diluted 6:100 in assay buffer (20 mM Sodium Phosphate, pH 6.0, 50 mM NaCl, 1 mM Ethylenediaminetetraacetic acid disodium salt dihydrate, 0.01% Triton X-100, 1 mM DL-Dithiothreitol) to yield 3× working solutions. Six microliters (μL) of the working solution was then transferred to white, low-volume assay plates (Costar #3673). A 1.5× assay mixture containing His-tagged bromodomain, Europium-conjugated anti-His antibody (Invitrogen PV5596) and the Alexa-647-conjugated probe molecule was also prepared. Twelve μL of this solution were added to the assay plate to reach a final volume of 18 μL. The final concentration of 1× assay buffer contains 2% DMSO, 50 μM-0.85 nM compound, 8 nM His-tagged bromodomain, 1 nM Europium-conjugated anti-His-tag antibody and 100 nM or 30 nM probe (for BDI or BDII, respectively). After a one-hour incubation at room temperature, TR-FRET ratios were determined using an Envision multilabel plate reader (Ex 340, Em […]).
(§3) TR-FRET data were normalized to the means of 24 no-compound controls (“high”) and 8 controls containing 1 μM un-labeled probe (“low”). […] Inhibition constants (Ki) were calculated from the IC50s, probe Kd and probe concentration. […] The minimum significant ratio was determined to evaluate assay reproducibility (Eastwood et al., (2006) J Biomol Screen, 11: 253-261). The MSR was determined to be 2.03 for BDI and 1.93 for BDII, and a moving MSR (last six run MSR overtime) for both BDI and BDII was typically <3.

For `CCS(=O)(=O)c1ccc(OCC2CC2(F)F)c(-c2cn(C)c(=O)c3[nH]c(CN4CCN(c5ncccn5)CC4)cc23)c1` (stereo not shown) [Example 19, 4-{2-[(2,2-difluorocyclopropyl)methoxy]-5-(ethylsulfonyl)phenyl}-6-methyl-2-{[4-(pyrimidin-2-yl)piperazin-1-yl]methyl}-1,6-dihydro-7H-pyrrolo[2,3-c]pyridin-7-one], which Ki is on record?
The Ki was 6.1 nM.

Each molecule was assayed against T2, BRD4 (BDII_E352-M457) (Homo sapiens, UniProt O60885) (assay: TR-FRET bromodomain binding assay, BRD4 second bromodomain). Details: His-tagged BRD4 BD2, 30 nM Alexa647 probe; Ki calculated from IC50, probe Kd and probe concentration.
T2 construct: made in house
Protocol: as §1, §2, §3

With `CCS(=O)(=O)c1ccc(OCC2CC2(F)F)c(-c2cn(C)c(=O)c3[nH]c(CN4CCN(c5ncccn5)CC4)cc23)c1` (stereo not shown) [Example 19, 4-{2-[(2,2-difluorocyclopropyl)methoxy]-5-(ethylsulfonyl)phenyl}-6-methyl-2-{[4-(pyrimidin-2-yl)piperazin-1-yl]methyl}-1,6-dihydro-7H-pyrrolo[2,3-c]pyridin-7-one] as the molecule, how does the Ki read?
The Ki was 62 nM.

These molecules were tested on breast cancer cell line MX-1 (assay: MX-1 cell line proliferation assay, Method B). Details: Homo sapiens, MX1; MX-1 cells, 384-well, 72 hours, Cell Titer Glo; read-out: Cellular proliferation: EC50 Method B.
Assay type: cell-based
Protocol: The impact of compounds of the Examples on cancer cell proliferation was determined using the breast cancer cell line MX-1 (ATCC) in a 3-day proliferation assay and the data are reported in Table 1.
MX-1 cells were maintained in RPMI 1640 medium (Sigma) supplemented with 10% FBS at 37° C. and an atmosphere of 5% CO2. For compound testing, MX-1 cells were plated in 384-well white with clear, flat bottom plates at a density of 750 cells/well in 25 μL of culture media and incubated at 370 overnight to allow cell adhesion and spreading. Ten point compound dilution series were prepared in DMSO via a 3-fold serial dilution from either 10 μM or 1 μM stock and added directly to the appropriate wells of the MX-1 cell plate by an ECHO liquid handler (Labcyte). The final compound concentrations in the wells were 10, 3.25, 1, 0.25, 0.124, 0.040, 0.0124, 0.0031, 0.0015 and 0.0005 μM or 1, 0.33, 0.1, 0.025, 0.0124, 0.004, 0.0012, 0.0003, 0.00015, 0.00005 μM, depending on the concentration of the compound stock solution.
Luminescence readings from the Cell Titer Glo assay were normalized to the DMSO treated cells and analyzed using Accelrys Assay Explorer 3.3 software with sigmoidal curve fitting to obtain EC50s. The minimum significant ratio (MSR) was determined to evaluate assay reproducibility (Eastwood et al., (2006) J Biomol Screen, 11: 253-261). The overall MSR was determined to be 3.3 and a moving MSR (last six run MSR overtime) has averaged 2.1.

Which EC50 does the source give for `Cc1cccc(C)c1Oc1ccc(S(C)(=O)=O)cc1-c1cn(C)c(=O)c2[nH]c(-c3nc(-c4cccnc4)no3)cc12` [Example 138, 4-[2-(2,6-dimethylphenoxy)-5-(methylsulfonyl)phenyl]-6-methyl-2-[3-(pyridin-3-yl)-1,2,4-oxadiazol-5-yl]-1,6-dihydro-7H-pyrrolo[2,3-c]pyridin-7-one] here?
Its EC50 is 465 nM.

How did the EC50 turn out when `Cc1cccc(C)c1Oc1ccc(S(C)(=O)=O)cc1-c1cn(C)c(=O)c2[nH]c(-c3nc(-c4ccccn4)no3)cc12` [Example 139, 4-[2-(2,6-dimethylphenoxy)-5-(methylsulfonyl)phenyl]-6-methyl-2-[3-(pyridin-2-yl)-1,2,4-oxadiazol-5-yl]-1,6-dihydro-7H-pyrrolo[2,3-c]pyridin-7-one] was run?
The EC50 was 532 nM.

How did the EC50 turn out when `Cc1cccc(C)c1Oc1ccc(S(C)(=O)=O)cc1-c1cn(C)c(=O)c2[nH]c(-c3nc(-c4cnccn4)no3)cc12` [Example 140, 4-[2-(2,6-dimethylphenoxy)-5-(methylsulfonyl)phenyl]-6-methyl-2-[3-(pyrazin-2-yl)-1,2,4-oxadiazol-5-yl]-1,6-dihydro-7H-pyrrolo[2,3-c]pyridin-7-one] was run?
Its EC50 is 491 nM.

For `Cc1cccc(C)c1Oc1ccc(S(C)(=O)=O)cc1-c1cn(C)c(=O)c2[nH]c(-c3nc(C4CCOCC4)no3)cc12` [Example 141, 4-[2-(2,6-dimethylphenoxy)-5-(methylsulfonyl)phenyl]-6-methyl-2-[3-(tetrahydro-2H-pyran-4-yl)-1,2,4-oxadiazol-5-yl]-1,6-dihydro-7H-pyrrolo[2,3-c]pyridin-7-one], which EC50 is on record?
Its EC50 is 443 nM.

`Cc1cccc(C)c1Oc1ccc(S(C)(=O)=O)cc1-c1cn(C)c(=O)c2[nH]c(-c3nc(-c4cscn4)no3)cc12` [Example 142, 4-[2-(2,6-dimethylphenoxy)-5-(methylsulfonyl)phenyl]-6-methyl-2-[3-(1,3-thiazol-4-yl)-1,2,4-oxadiazol-5-yl]-1,6-dihydro-7H-pyrrolo[2,3-c]pyridin-7-one] was tested. Which EC50 did it give?
The EC50 was 615 nM.

With `CCN(CC)C(C)(C)CNC(=O)c1cc2c(-c3cc(S(C)(=O)=O)ccc3Oc3c(C)cccc3C)cn(C)c(=O)c2[nH]1` [Example 143, N-[2-(diethylamino)-2-methylpropyl]-4-[2-(2,6-dimethylphenoxy)-5-(methylsulfonyl)phenyl]-6-methyl-7-oxo-6,7-dihydro-1H-pyrrolo[2,3-c]pyridine-2-carboxamide] as the molecule, how does the EC50 read?
The EC50 was 532 nM.

`CCN(CC)CCCCNC(=O)c1cc2c(-c3cc(S(C)(=O)=O)ccc3Oc3c(C)cccc3C)cn(C)c(=O)c2[nH]1` [Example 144, N-[4-(diethylamino)butyl]-4-[2-(2,6-dimethylphenoxy)-5-(methylsulfonyl)phenyl]-6-methyl-7-oxo-6,7-dihydro-1H-pyrrolo[2,3-c]pyridine-2-carboxamide] was tested. Which EC50 did it give?
The EC50 was 498 nM.

Which EC50 does the source give for `CCNC(=O)c1cc2c(-c3cc(S(=O)(=O)CC)ccc3Oc3c(C)cccc3CN3CCOCC3)cn(C)c(=O)c2[nH]1` [Example 146, N-ethyl-4-{5-(ethylsulfonyl)-2-[2-methyl-6-(morpholin-4-ylmethyl)phenoxy]phenyl}-6-methyl-7-oxo-6,7-dihydro-1H-pyrrolo[2,3-c]pyridine-2-carboxamide] here?
Its EC50 is 9320 nM.

With `CCNC(=O)c1cc2c(-c3cc(S(=O)(=O)CC)ccc3Oc3c(C)cccc3CN3CCCCC3)cn(C)c(=O)c2[nH]1` [Example 147, N-ethyl-4-{5-(ethylsulfonyl)-2-[2-methyl-6-(piperidin-1-ylmethyl)phenoxy]phenyl}-6-methyl-7-oxo-6,7-dihydro-1H-pyrrolo[2,3-c]pyridine-2-carboxamide] as the molecule, how does the EC50 read?
The EC50 was 6320 nM.

With `CCNC(=O)c1cc2c(-c3cc(S(=O)(=O)CC)ccc3Oc3c(C)cccc3CCc3ccccc3)cn(C)c(=O)c2[nH]1` [Example 148, N-ethyl-4-{5-(ethylsulfonyl)-2-[2-methyl-6-(2-phenylethyl)phenoxy]phenyl}-6-methyl-7-oxo-6,7-dihydro-1H-pyrrolo[2,3-c]pyridine-2-carboxamide] as the molecule, how does the EC50 read?
Its EC50 is 1680 nM.

How did the EC50 turn out when `CCS(=O)(=O)c1ccc(OC2CCCCC2)c(-c2cn(C)c(=O)c3[nH]c(-c4cnn(C5CCNCC5)c4)cc23)c1` [Example 149, 4-[2-(cyclohexyloxy)-5-(ethylsulfonyl)phenyl]-6-methyl-2-[1-(piperidin-4-yl)-1H-pyrazol-4-yl]-1,6-dihydro-7H-pyrrolo[2,3-c]pyridin-7-one] was run?
Its EC50 is 1.18 nM.

With `CCNC(=O)c1cc2c(-c3cc(S(=O)(=O)CC)ccc3Oc3c(C)cccc3Cn3ccnc3)cn(C)c(=O)c2[nH]1` [Example 150, N-ethyl-4-{5-(ethylsulfonyl)-2-[2-(1H-imidazol-1-ylmethyl)-6-methylphenoxy]phenyl}-6-methyl-7-oxo-6,7-dihydro-1H-pyrrolo[2,3-c]pyridine-2-carboxamide] as the molecule, how does the EC50 read?
The EC50 was greater than 10000 nM.

Which EC50 does the source give for `CCNC(=O)c1cc2c(-c3cc(S(=O)(=O)CC)ccc3Oc3c(C)cccc3CN3CCCS3(=O)=O)cn(C)c(=O)c2[nH]1` [Example 152, 4-[2-{2-[(1,1-dioxido-1,2-thiazolidin-2-yl)methyl]-6-methylphenoxy}-5-(ethylsulfonyl)phenyl]-N-ethyl-6-methyl-7-oxo-6,7-dihydro-1H-pyrrolo[2,3-c]pyridine-2-carboxamide] here?
The EC50 was 8140 nM.

For `CCNC(=O)c1cc2c(-c3ccc(C(=O)N(CC(=O)NC)Cc4ccccn4)cc3Oc3c(C)cccc3C)cn(C)c(=O)c2[nH]1` [Example 153, 4-[2-(2,6-dimethylphenoxy)-4-{[2-(methylamino)-2-oxoethyl](pyridin-2-ylmethyl)carbamoyl}phenyl]-N-ethyl-6-methyl-7-oxo-6,7-dihydro-1H-pyrrolo[2,3-c]pyridine-2-carboxamide], which EC50 is on record?
Its EC50 is greater than 10000 nM.

`Cn1cc(-c2cc(S(C)(=O)=O)ccc2Oc2ccc(F)cc2F)c2cc(CN3CC(n4cncn4)C3)[nH]c2c1=O` [Example 156, 4-[2-(2,4-difluorophenoxy)-5-(methylsulfonyl)phenyl]-6-methyl-2-{[3-(1H-1,2,4-triazol-1-yl)azetidin-1-yl]methyl}-1,6-dihydro-7H-pyrrolo[2,3-c]pyridin-7-one] was tested. Which EC50 did it give?
The EC50 was 332 nM.

With `Cn1cc(-c2cc(S(C)(=O)=O)ccc2Oc2ccc(F)cc2F)c2cc(CNCCC(N)=O)[nH]c2c1=O` [Example 159, 3-[({4-[2-(2,4-difluorophenoxy)-5-(methylsulfonyl)phenyl]-6-methyl-7-oxo-6,7-dihydro-1H-pyrrolo[2,3-c]pyridin-2-yl}methyl)amino]propanamide] as the molecule, how does the EC50 read?
The EC50 was 599 nM.

How did the EC50 turn out when `CCNC(=O)c1cc2c(-c3ccc(C(=O)N(CCCN4CCOCC4)Cc4ccccc4)cc3Oc3c(C)cccc3C)cn(C)c(=O)c2[nH]1` [Example 161, 4-[4-{benzyl[3-(morpholin-4-yl)propyl]carbamoyl}-2-(2,6-dimethylphenoxy)phenyl]-N-ethyl-6-methyl-7-oxo-6,7-dihydro-1H-pyrrolo[2,3-c]pyridine-2-carboxamide] was run?
The EC50 was 1950 nM.
